The values below come from PubChem BioAssay AID2305 (GlaxoSmithKline (GSK), 2010).

The structures appear in SMILES notation. Several values for one entry are separate records, joined by “and”; a condition that tells them apart may be missing. Identical values can stand only once.

This assay deals with P. falciparum 3D7 growth, pLDH absorbance. In words: blood-stage malaria parasite growth potency – strain 3D7, dose response (AID 2305).
For orientation: IC50 means the midpoint of a concentration-inhibition curve. A higher IC50 goes with weaker potency. `CC(C)(C)c1nn(-c2ccccc2)c2[nH]c(=O)c(CNC3CCCC3)cc12` gave an IC50 of 850 nM. Under `COc1c(C2CCN(CCCCNC(=O)C=Cc3cc4cc(Cl)ccc4o3)CC2)ccc2c1CCCC2` stands 1310 nM.

In the case of `CCc1cc(-c2onc(C)c2-c2cc3ccccc3o2)c(O)cc1OC`, the IC50 worked out at 970 nM.

The compound `Cc1noc(-c2ccc(N3CCC(C(=O)N4CCN(C(C)C)CC4)CC3)cc2)n1` registered an IC50 of 1070 nM. `COc1ccc(-c2ccc(NC(=O)c3ccc(C#N)cc3)cc2)cc1CN1CCC(O)CC1` returned an IC50 of 580 nM. For `COCCC[C@H]1C(=O)O[C@H]2CCC[C@@H]21` the value was 700 nM; for `CC(C)N1CCN(C(CN2CCN(CCCOc3ccc4nonc4c3)CC2)c2ccc(F)cc2)CC1` (centres undefined), 800 nM; for `Cc1cc(=O)c(-c2ccc(OCc3ccc(OC(F)(F)F)cc3)cc2)c(C)[nH]1`, 740 nM. In turn, `N#Cc1ccc(C=Cc2nccc3c2[nH]c2ccccc23)cc1` came in with an IC50 of 640 nM. In turn, `O=C(Nc1ccc(OC2CCN(Cc3ccc(F)cc3)C2)c(Cl)c1)c1ccoc1` (centres undefined) came in with an IC50 of 940 nM.

`CC(C)c1cc(Oc2c(I)cc(CCNCc3ccccc3)cc2I)ccc1O`: the IC50 was 540 nM. For `CCCCNc1c(CC)c(C)c(C#N)c2nc3ccccc3n12` the value was 380 nM; for `CC1(C)C(=O)Nc2ccccc2N1C(=O)CN1CCN(c2ccccc2O)CC1`, 1070 nM; for `COc1ccc(CNC(=O)c2cnc3c(O)cccc3c2Nc2cccc(NC(=O)c3ccc(Cl)c([N+](=O)[O-])c3)c2)cc1`, 950 nM. For `Clc1cccc(CNC2CCN(CC3CCCCC3)CC2)c1` the value was 910 nM. For `CC1CCCN1Cc1ccc(-c2ccc3c(=O)cc(CCc4cccc(F)c4F)n(CC(=O)N(C)Cc4ccc(-c5ccc(C(F)(F)F)cc5)cc4)c3n2)cc1` (centres undefined) the value was 820 nM. With `Oc1ccc(-c2ccccc2)cc1CN1CCCCC1`, the IC50 stood at 900 nM.

With `CN1CCC(Oc2cc(NC(=O)Nc3ccc(-c4ccncc4)c(C(F)(F)F)c3)ccc2Cl)CC1`, the IC50 worked out at 780 nM. Under `CC(C)(C)c1cc(Cn2ccnc2)cc(C(C)(C)C)c1O` stands 1040 nM.

`CCNc1cc(C(=O)N[C@@H](Cc2ccccc2)[C@H](O)CNC2(CC(C)C)CC2)cc(N2CCCCS2(=O)=O)c1` came in with an IC50 of 1020 nM.

Regarding `O=C(CCc1cnc[nH]1)Nc1ccc(-c2cccc(-c3nc4ccccc4[nH]3)c2)cc1`, the half-maximal inhibitory concentration (IC50) stood at 350 nM.

In turn, `C=CCn1c(Sc2ccc(C#N)c([N+](=O)[O-])c2)nnc1-c1cccc(Cl)c1` returned a concentration for half-maximal inhibition (IC50) of 300 nM. Turning to `Cc1ccc(O)c(-c2cc(C(=O)Nc3ccc(S(=O)(=O)N4CCCCC4)cc3)[nH]n2)c1`, the IC50 worked out at 810 nM. For `NCCNc1ccc([N+](=O)[O-])cc1C(=O)Nc1cccc(C(F)(F)F)c1` the value was 910 nM; for `Cc1cc(C)cc(-n2c(C)cc(C=C3SC(=Nc4ccc(Cl)cc4)NC3=O)c2C)c1`, 70 nM; for `COc1c(C2CCN(CCCCNC(=O)c3ccc(-c4ccc(Cl)cc4)c(OCC(N)=O)c3)CC2)ccc2c1CCCC2`, 1010 nM.

Regarding `CCN(CC)CCOC(=O)c1ccc(NC(=O)c2cn(-c3ccccc3)nc2-c2cccs2)cc1`, the IC50 was found to be 380 nM. With `CCC1CN2CCc3c([nH]c4ccccc34)[C@@H]2C[C@@H]1CC1NCCc2cc(OC)c(OC)cc21` (some centres undefined), the half-maximal inhibitory concentration (IC50) is 860 nM and 840 nM. Under `COc1ccc(S(=O)(=O)NCCCC2CCN(CCCCCNC(=O)C=Cc3ccc(Cl)c(Cl)c3)CC2)cc1` stands 1040 nM; under `O=C(/C=C/c1c(Cl)cccc1Cl)NC1CCC(CN2CCC(Cc3cc4ccccc4[nH]3)CC2)CC1` (centres undefined), 970 nM; under `CCc1ccccc1N1CCN(CCCCNC(=O)c2ccc(NC(=O)c3ccc(Cl)cc3)cc2)CC1`, 960 nM.

Turning to `Cc1cccc2[nH]c(-c3cccc(-c4ccc(NC(=O)Cc5ccon5)cc4)c3)nc12`, the half-inhibitory concentration (IC50) worked out at 1090 nM. The compound `O=C(Nc1ccc(Cl)cc1)N(CC1C[C@H]2CC[C@@H](C1)N2Cc1ccc(C(F)(F)F)cc1)c1ccc(N2CCOCC2)c(F)c1` (some centres undefined) had an IC50 of 1070 nM. Under `Cc1ccc(Nc2nccc(NCC(O)c3cccc(C(F)(F)F)c3)n2)cc1` (centres undefined) stands 680 nM.
